Molecules are shown by their SMILES. ≈ marks a conversion by molar mass, not a printed value.

Common to all, as to assay: ≥ marks a high value that may be exact or a test limit, other limits are often not marked, values filed in µg/mL are converted to µM
Test [1] concerns Bacillus subtilis.
Test [2] deals with Escherichia coli.
Test [3] relates to Staphylococcus aureus.
Test [4] relates to Candida albicans.
Test [5] has as its system Staphylococcus aureus ATCC BAA-1556.

In the case of `CC[C@H](C)[C@H](NC(=O)[C@@H]1CCCN1C(=O)[C@H](CCSC)NC(=O)[C@@H](N)Cc1ccccc1)C(=O)N[C@@H](CC(C)C)C(=O)N[C@@H](CO)C(=O)N[C@H]1CSSC[C@@H](C(=O)O)NC(=O)[C@H](CCCN=C(N)N)NC(=O)[C@H](CCCCN)NC(=O)[C@H](Cc2ccccc2)NC(=O)[C@H](CCCN=C(N)N)NC(=O)[C@H](CO)NC1=O` [FMPILSCSRFKRC], the MIC (commonly the smallest concentration in the dilution series that meets the test's criterion for growth inhibition) in test [1] turned out to be 23.6 µM (≈ 37.5 µg/mL); in test [2], 2.95 µM (≈ 4.67 µg/mL); in test [3] it was 5.9 µM (≈ 9.36 µg/mL); in test [4], 0.693 µM (≈ 1.1 µg/mL). As for `CC[C@H](C)[C@H](NC(=O)[C@H](CC(C)C)NC(=O)[C@H](C)NC(=O)[C@@H]1CCCN1C(=O)[C@H](CC(C)C)NC(=O)CN)C(=O)N[C@@H](CO)C(=O)N[C@@H](Cc1c[nH]c2ccccc12)C(=O)N[C@H](C(=O)N[C@@H](CCCCN)C(=O)N[C@@H](CCCN=C(N)N)C(=O)N[C@@H](CCCCN)C(=O)N[C@@H](CCCN=C(N)N)C(=O)N[C@@H](CC(C)C)C(N)=O)[C@@H](C)CC` [GLPALISWIKRKRL], the MIC amounted to 0.394 µM (≈ 0.65 µg/mL) in test [1], 6.9 µM (≈ 11.4 µg/mL) in test [2] and 1.57 µM (≈ 2.6 µg/mL) in test [3]. Taken in the same sequence, the figures for `CC[C@H](C)[C@H](NC(=O)[C@H](CC(C)C)NC(=O)[C@H](C)NC(=O)[C@@H]1CCCN1C(=O)[C@H](CO)NC(=O)CN)C(=O)N[C@@H](CO)C(=O)N[C@@H](Cc1c[nH]c2ccccc12)C(=O)N[C@H](C(=O)N[C@@H](CCCCN)C(=O)N[C@@H](CCCN=C(N)N)C(=O)N[C@@H](CCCCN)C(=O)N[C@@H](CCCN=C(N)N)C(=O)N[C@@H](CCC(N)=O)C(=O)N[C@@H](CCC(N)=O)C(N)=O)[C@@H](C)CC` [GSPALISWIKRKRQQ] were at least 38.2 µM, above 153 µM and 50.9 µM (≈ 90 µg/mL). On to `CC[C@H](C)[C@H](N)C(=O)N[C@@H](CC(N)=O)C(=O)N[C@@H](Cc1c[nH]c2ccccc12)C(=O)N[C@@H](CCCCN)C(=O)N[C@@H](CCCCN)C(=O)N[C@H](C(=O)N[C@@H](Cc1ccccc1)C(=O)N[C@@H](CCC(=O)O)C(=O)N[C@@H](CCCCN)C(=O)N[C@H](C(=O)N[C@@H](CCCCN)C(=O)N[C@@H](CC(=O)O)C(=O)N[C@@H](CC(C)C)C(=O)N[C@H](C(N)=O)C(C)C)C(C)C)[C@@H](C)CC` [INWKKIFEKVKDLV], for which the MIC in test [1] amounted to 5 µM (≈ 8.8 µg/mL); in test [2], 9 µM (≈ 15.8 µg/mL). With `CC[C@H](C)[C@H](NC(=O)[C@H](Cc1c[nH]c2ccccc12)NC(=O)[C@H](CCCN=C(N)N)NC(=O)[C@H](CCCN=C(N)N)NC(=O)[C@H](C)NC(=O)[C@@H](N)CCCCN)C(=O)N[C@@H](CCCN=C(N)N)C(=O)N[C@@H](Cc1c[nH]c2ccccc12)C(=O)N[C@@H](CC(C)C)C(N)=O` [KARRWIRWL], the MIC in test [5] came out at 25 µM (≈ 32.1 µg/mL). `CC(C)C[C@H](NC(=O)[C@H](CC(C)C)NC(=O)[C@H](CCCCN)NC(=O)[C@H](CC(C)C)NC(=O)[C@H](CC(C)C)NC(=O)[C@H](Cc1c[nH]c2ccccc12)NC(=O)[C@H](CCCCN)NC(=O)[C@H](CC(C)C)NC(=O)[C@H](CC(C)C)NC(=O)[C@@H](N)CCCCN)C(N)=O` [KLLKWLLKLL] gave an MIC in test [5] of 3.13 µM (≈ 3.96 µg/mL). In turn, `CC(C)C[C@H](NC(=O)[C@H](CC(C)C)NC(=O)[C@H](CCCCN)NC(=O)[C@H](CC(C)C)NC(=O)[C@H](CC(C)C)NC(=O)[C@H](CC(C)C)NC(=O)[C@H](CC(C)C)NC(=O)[C@H](CC(C)C)NC(=O)[C@@H](N)CCCCN)C(N)=O` [KLLLLLKLL] showed an MIC in test [5] of at least 100 µM.

The molecule `CC[C@H](C)[C@H](NC(=O)[C@H](Cc1c[nH]c2ccccc12)NC(=O)[C@H](CCCN=C(N)N)NC(=O)[C@H](CC(C)C)NC(=O)[C@H](Cc1c[nH]c2ccccc12)NC(=O)[C@@H](N)CCCCN)C(=O)N[C@@H](CCCN=C(N)N)C(=O)N[C@@H](Cc1c[nH]c2ccccc12)C(=O)N[C@@H](CC(C)C)C(N)=O` [KWLRWIRWL] registered an MIC in test [5] of 6.25 µM (≈ 8.47 µg/mL). On to `CC[C@H](C)[C@H](NC(=O)[C@H](Cc1c[nH]c2ccccc12)NC(=O)[C@H](C)NC(=O)[C@H](CCCN=C(N)N)NC(=O)[C@H](Cc1c[nH]c2ccccc12)NC(=O)[C@@H](N)CCCCN)C(=O)N[C@@H](CCCN=C(N)N)C(=O)N[C@@H](Cc1c[nH]c2ccccc12)C(=O)N[C@@H](CC(C)C)C(N)=O` [KWRAWIRWL], for which the minimum inhibitory concentration (MIC) in test [5] is 12.5 µM (≈ 16.4 µg/mL). In test [5], `CC(C)C[C@H](NC(=O)[C@H](CC(C)C)NC(=O)[C@H](CCCCN)NC(=O)[C@H](CC(C)C)NC(=O)[C@H](CC(C)C)NC(=O)[C@H](Cc1c[nH]c2ccccc12)NC(=O)[C@H](CCCCN)NC(=O)[C@@H](N)CC(C)C)C(N)=O` [LKWLLKLL] gave an MIC of 12.5 µM (≈ 12.8 µg/mL). Still for that read-out and setting: as for `CC(C)C[C@H](NC(=O)[C@H](CC(C)C)NC(=O)[C@H](CC(C)C)NC(=O)[C@H](CCCCN)NC(=O)[C@H](CC(C)C)NC(=O)[C@H](CC(C)C)NC(=O)[C@H](CCCCN)NC(=O)[C@H](CC(C)C)NC(=O)[C@@H](N)CC(C)C)C(N)=O` [LLKLLKLLL], the figure is 3.13 µM (≈ 3.34 µg/mL). In the case of `CC(C)C[C@H](NC(=O)[C@H](CC(C)C)NC(=O)[C@H](CCCCN)NC(=O)[C@H](CC(C)C)NC(=O)[C@H](CC(C)C)NC(=O)[C@H](CC(C)C)NC(=O)[C@H](CCCCN)NC(=O)[C@H](CC(C)C)NC(=O)[C@@H](N)CC(C)C)C(=O)O` [LLKLLLKLL], in test [5], the MIC is at least 100 µM. The molecule `CC(C)C[C@H](NC(=O)[C@H](CCCCN)NC(=O)[C@H](CC(C)C)NC(=O)[C@H](CC(C)C)NC(=O)[C@H](CC(C)C)NC(=O)[C@H](CCCCN)NC(=O)[C@H](CC(C)C)NC(=O)[C@@H](N)CC(C)C)C(N)=O` [LLKLLLKL] had an MIC in test [5] of at least 100 µM. Still for that read-out and setting: for `CC(C)C[C@H](NC(=O)[C@H](CCCCN)NC(=O)[C@H](CC(C)C)NC(=O)[C@H](CC(C)C)NC(=O)[C@H](CC(C)C)NC(=O)[C@H](CC(C)C)NC(=O)[C@H](CCCCN)NC(=O)[C@H](CC(C)C)NC(=O)[C@@H](N)CC(C)C)C(N)=O` [LLKLLLLKL] the value was at least 100 µM; for `CC(C)C[C@H](NC(=O)[C@H](CCCCN)NC(=O)[C@H](CC(C)C)NC(=O)[C@H](CC(C)C)NC(=O)[C@H](CC(C)C)NC(=O)[C@H](CCCCN)NC(=O)[C@H](CC(C)C)NC(=O)[C@H](CC(C)C)NC(=O)[C@@H](N)CC(C)C)C(N)=O` [LLLKLLLKL], at least 100 µM. On the same count and under the same terms, as for `CC[C@H](C)[C@H](NC(=O)[C@H](Cc1c[nH]c2ccccc12)NC(=O)[C@@H](N)CCCN=C(N)N)C(=O)N[C@@H](CCCN=C(N)N)C(=O)N[C@@H](Cc1c[nH]c2ccccc12)C(=O)N[C@@H](CC(C)C)C(N)=O` [RWIRWL], the figure is at least 100 µM; as for `CC(C)[C@H](N)C(=O)N[C@H](C(=O)N[C@@H](CCCCN)C(=O)N[C@H](C(=O)N[C@H](C(=O)N[C@H](C(=O)N[C@@H](CCCCN)C(=O)N[C@H](C(=O)N[C@H](C(N)=O)C(C)C)C(C)C)C(C)C)C(C)C)C(C)C)C(C)C` [VVKVVVKVV], at least 100 µM. Take `CC(C)C[C@H](NC(=O)[C@H](Cc1c[nH]c2ccccc12)NC(=O)[C@H](Cc1c[nH]c2ccccc12)NC(=O)[C@H](CCCN=C(N)N)NC(=O)[C@H](Cc1c[nH]c2ccccc12)NC(=O)[C@H](Cc1c[nH]c2ccccc12)NC(=O)[C@H](CC(C)C)NC(=O)[C@H](Cc1c[nH]c2ccccc12)NC(=O)[C@@H](N)Cc1c[nH]c2ccccc12)C(N)=O` [WWLWWRWWL]: the MIC in test [5] is 6.25 µM (≈ 9.48 µg/mL).
